Assays:
[1] = target: T1, GLP-1R (Homo sapiens, UniProt P43220); experiment: cAMP accumulation, wild-type GLP-1R; assay type: cell-based; details: GLP-1R WT, HEK-293T, TR-FRET, mean ± S.E.M.
T1 construct: expressed in transfected cells; host or cells: HEK-293T
Protocol: (§1) HEK-293T cells were maintained at 37°C in 5% CO2 incubator and seeded onto 6-well cell […]
(§2) culture plates before transfection. After overnight culture, the cells were transiently transfected […]
(§3) with various constructs using Lipofectamine 2000 transfection reagent (Invitrogen). After 24 h, […]
(§4) the transfected cells were seeded onto 384-microtiter plates at a density of 3,000 cells per well […]
(§5) in stimulation buffer (HBSS supplemented with 5 mM HEPES, 0.1% (w/v) casein and 0.5 mM […]
(§6) 3-isobutyl-1-methylxanthine). Different concentrations of retatrutide in stimulation buffer were […]
(§7) added, and the stimulation lasted for 40 min. The reaction was stopped by addition of cAMP […]
(§8) detection buffer containing Eu-cAMP tracer and ULight-anti-cAMP. Plates were then incubated for […]
(§9) 60 min at RT. Time-resolved FRET signals were measured at 620 nm and 665 nm, respectively, by […]
(§10) an EnVision multilabel plate reader (PerkinElmer). Data were analyzed in GraphPad PRISM 9.5 […]
and all values were normalized to that of the wild-type (WT). […]
(§11) accumulation was measured in wild-type (WT) and single-point mutated GLP-1R, GIPR or […]
of the WT and dose-response curves were analyzed using a three-parameter logistic equation. […]
curves were analyzed using a three-parameter logistic equation to obtain pEC50 and Emax values. […]
(§12) way ANOVA was used to determine statistical difference. N.D., values that could not be determined due […]

[2] = target: T2, GCGR mutants (Homo sapiens, UniProt P47871, Y202A); experiment: cAMP accumulation, single-point mutated GCGR; assay type: cell-based; details: GCGR Y202(2.75b)A, HEK-293T, 40 min, TR-FRET, mean ± S.E.M., n at least 3
T2 construct: expressed in transfected cells; host or cells: HEK-293T
T2 sequence (P47871 26-477 Y202A): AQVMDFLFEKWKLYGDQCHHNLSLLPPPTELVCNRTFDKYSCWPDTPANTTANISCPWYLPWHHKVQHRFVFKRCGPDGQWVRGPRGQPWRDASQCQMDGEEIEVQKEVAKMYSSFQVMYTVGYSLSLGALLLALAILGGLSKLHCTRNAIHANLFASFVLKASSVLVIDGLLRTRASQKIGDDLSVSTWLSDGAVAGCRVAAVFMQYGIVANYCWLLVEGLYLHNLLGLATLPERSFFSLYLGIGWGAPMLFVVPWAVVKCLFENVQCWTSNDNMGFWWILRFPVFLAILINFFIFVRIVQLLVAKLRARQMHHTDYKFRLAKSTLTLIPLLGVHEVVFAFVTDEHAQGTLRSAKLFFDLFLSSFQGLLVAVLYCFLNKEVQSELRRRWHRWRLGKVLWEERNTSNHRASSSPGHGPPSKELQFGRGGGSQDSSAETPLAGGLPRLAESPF
Protocol: as §1, §2, §3, §4, §5, §6, §7, §8, §9, §10
(§13) and all values were normalized to that of the wild-type (WT).
(§14) Supplementary Fig. 5 Effects of receptor mutation on retatrutide-induced cAMP […]
(§15) accumulation. a-c, Signaling profiles of GLP-1R (a), GIPR (b) and GCGR (c) mutants. cAMP […]
as §11
(§16) GCGR expressing HEK-293T cells. cAMP levels were normalized to the maximum response […]
(§17) of the WT and dose-response curves were analyzed using a three-parameter logistic equation.
(§18) Data were generated and graphed as means ± S.E.M. of at least three independent experiments performed in quadruplicate.
(§19) (1 picture or pasted object on this page, not shown here)
(§20) Supplementary Ta b l e S 5 Effects of the ligand-binding pocket residue mutation on retatrutide- […]
(§21) induced cAMP signaling at GLP-1R, GIPR or GCGR. […]
(§22) cAMP levels were normalized to the maximum response of the wild-type (WT) and dose-response […]
(§23) curves were analyzed using a three-parameter logistic equation to obtain pEC50 and Emax values. The […]
(§24) experiments were carried out independently at least three times. Data shown are means ± S.E.M. One- […]
as §12
(§25) to incomplete curve fits. *P< 0.05, **P< 0.01, ***P< 0.001 and ****P<0.0001.

[3] = target: T3, GCGR mutants (Homo sapiens, UniProt P47871, W215A); experiment: cAMP accumulation, single-point mutated GCGR; assay type: cell-based; details: GCGR W215(ECL1)A, HEK-293T, 40 min, TR-FRET, mean ± S.E.M., n at least 3
T3 construct: expressed in transfected cells; host or cells: HEK-293T
T3 sequence (P47871 26-477 W215A): as the sequence (P47871 26-477 Y202A) above, with A177Y, W190A counted along it
Protocol: as §1, §2, §3, §4, §5, §6, §7, §8, §9, §10, §13, §14, §15, §11, §16, §17, §18, §19, §20, §21, §22, §23, §24, §12, §25

[4] = target: T4, GCGR mutants (Homo sapiens, UniProt P47871, Q131A); experiment: cAMP accumulation, single-point mutated GCGR; assay type: cell-based; details: GCGR Q131(1.29b)A; HEK-293T, 40 min, TR-FRET; mean ± S.E.M., n at least 3
T4 construct: expressed in transfected cells; host or cells: HEK-293T
T4 sequence (P47871 26-477 Q131A): as the sequence (P47871 26-477 Y202A) above, with Q106A, A177Y counted along it
Protocol: as §1, §2, §3, §4, §5, §6, §7, §8, §9, §10, §13, §14, §15, §11, §16, §17, §18, §19, §20, §21, §22, §23, §24, §12, §25

[5] = target: T5, GCGR mutants (Homo sapiens, UniProt P47871, S297A); experiment: cAMP accumulation, single-point mutated GCGR; assay type: cell-based; details: GCGR S297(ECL2)A; HEK-293T, 40 min, TR-FRET; mean ± S.E.M., n at least 3
T5 construct: expressed in transfected cells; host or cells: HEK-293T
T5 sequence (P47871 26-477 S297A): as the sequence (P47871 26-477 Y202A) above, with A177Y, S272A counted along it
Protocol: as §1, §2, §3, §4, §5, §6, §7, §8, §9, §10, §13, §14, §15, §11, §16, §17, §18, §19, §20, §21, §22, §23, §24, §12, §25

[6] = target: T6, GCGR mutants (Homo sapiens, UniProt P47871, D385A); experiment: cAMP accumulation, single-point mutated GCGR; assay type: cell-based; details: GCGR D385(7.42b)A, HEK-293T, 40 min, TR-FRET, mean ± S.E.M., n at least 3
T6 construct: expressed in transfected cells; host or cells: HEK-293T
T6 sequence (P47871 26-477 D385A): as the sequence (P47871 26-477 Y202A) above, with A177Y, D360A counted along it
Protocol: as §1, §2, §3, §4, §5, §6, §7, §8, §9, §10, §13, §14, §15, §11, §16, §17, §18, §19, §20, §21, §22, §23, §24, §12, §25

[7] = system: GCGR mutants; experiment: cAMP accumulation, single-point mutated GCGR; assay type: cell-based, human; details: relative to WT
Protocol: as §1, §2, §3, §4, §5, §6, §7, §8, §9, §10, §13, §14, §15, §11, §16, §17, §18, §19, §20, §21, §22, §23, §24, §12, §25

[8] = target: T7, GCGR mutants (Homo sapiens, UniProt P47871, E362A); experiment: cAMP accumulation, single-point mutated GCGR; assay type: cell-based; details: GCGR E362(6.53b)A, HEK-293T, 40 min, TR-FRET, mean ± S.E.M., n at least 3
T7 construct: expressed in transfected cells; host or cells: HEK-293T
T7 sequence (P47871 26-477 E362A): as the sequence (P47871 26-477 Y202A) above, with A177Y, E337A counted along it
Protocol: as §1, §2, §3, §4, §5, §6, §7, §8, §9, §10, §13, §14, §15, §11, §16, §17, §18, §19, §20, §21, §22, §23, §24, §12, §25

[9] = target: T8, GCGR mutants (Homo sapiens, UniProt P47871, Y138L); experiment: cAMP accumulation, single-point mutated GCGR; assay type: cell-based; details: GCGR Y138(1.36b)L, HEK-293T, 40 min, TR-FRET, mean ± S.E.M., n at least 3
T8 construct: expressed in transfected cells; host or cells: HEK-293T
T8 sequence (P47871 26-477 Y138L): as the sequence (P47871 26-477 Y202A) above, with Y113L, A177Y counted along it
Protocol: as §1, §2, §3, §4, §5, §6, §7, §8, §9, §10, §13, §14, §15, §11, §16, §17, §18, §19, §20, §21, §22, §23, §24, §12, §25

[10] = target: T9, GCGR mutants (Homo sapiens, UniProt P47871, Y138A); experiment: cAMP accumulation, single-point mutated GCGR; assay type: cell-based; details: GCGR Y138(1.36b)A, HEK-293T, 40 min, TR-FRET, mean ± S.E.M., n at least 3
T9 construct: expressed in transfected cells; host or cells: HEK-293T
T9 sequence (P47871 26-477 Y138A): as the sequence (P47871 26-477 Y202A) above, with Y113A, A177Y counted along it
Protocol: as §1, §2, §3, §4, §5, §6, §7, §8, §9, §10, §13, §14, §15, §11, §16, §17, §18, §19, §20, §21, §22, §23, §24, §12, §25

[11] = target: T10, GCGR mutants (Homo sapiens, UniProt P47871, W87A); experiment: cAMP accumulation, single-point mutated GCGR; assay type: cell-based; details: GCGR W87(ECD)A, HEK-293T, 40 min, TR-FRET, mean ± S.E.M., n at least 3
T10 construct: expressed in transfected cells; host or cells: HEK-293T
T10 sequence (P47871 26-477 W87A): as the sequence (P47871 26-477 Y202A) above, with W62A, A177Y counted along it
Protocol: as §1, §2, §3, §4, §5, §6, §7, §8, §9, §10, §13, §14, §15, §11, §16, §17, §18, §19, §20, §21, §22, §23, §24, §12, §25

[12] = target: T11, GCGR mutants (Homo sapiens, UniProt P47871, I194K); experiment: cAMP accumulation, single-point mutated GCGR; assay type: cell-based; details: GCGR I194(2.67b)K, HEK-293T, 40 min, TR-FRET, mean ± S.E.M., n at least 3
T11 construct: expressed in transfected cells; host or cells: HEK-293T
T11 sequence (P47871 26-477 I194K): as the sequence (P47871 26-477 Y202A) above, with I169K, A177Y counted along it
Protocol: as §1, §2, §3, §4, §5, §6, §7, §8, §9, §10, §13, §14, §15, §11, §16, §17, §18, §19, §20, §21, §22, §23, §24, §12, §25

[13] = target: T12, GCGR mutants (Homo sapiens, UniProt P47871, K205A); experiment: cAMP accumulation, single-point mutated GCGR; assay type: cell-based; details: GCGR K205(ECL1)A; HEK-293T, 40 min, TR-FRET; mean ± S.E.M., n at least 3
T12 construct: expressed in transfected cells; host or cells: HEK-293T
T12 sequence (P47871 26-477 K205A): as the sequence (P47871 26-477 Y202A) above, with A177Y, K180A counted along it
Protocol: as §1, §2, §3, §4, §5, §6, §7, §8, §9, §10, §13, §14, §15, §11, §16, §17, §18, §19, §20, §21, §22, §23, §24, §12, §25

[14] = target: T13, GCGR mutants (Homo sapiens, UniProt P47871, Q293A); experiment: cAMP accumulation, single-point mutated GCGR; assay type: cell-based; details: GCGR Q293(ECL2)A, HEK-293T, 40 min, TR-FRET, mean ± S.E.M., n at least 3
T13 construct: expressed in transfected cells; host or cells: HEK-293T
T13 sequence (P47871 26-477 Q293A): as the sequence (P47871 26-477 Y202A) above, with A177Y, Q268A counted along it
Protocol: as §1, §2, §3, §4, §5, §6, §7, §8, §9, §10, §13, §14, §15, §11, §16, §17, §18, §19, §20, §21, §22, §23, §24, §12, §25

T1 sequence (P43220 24-463): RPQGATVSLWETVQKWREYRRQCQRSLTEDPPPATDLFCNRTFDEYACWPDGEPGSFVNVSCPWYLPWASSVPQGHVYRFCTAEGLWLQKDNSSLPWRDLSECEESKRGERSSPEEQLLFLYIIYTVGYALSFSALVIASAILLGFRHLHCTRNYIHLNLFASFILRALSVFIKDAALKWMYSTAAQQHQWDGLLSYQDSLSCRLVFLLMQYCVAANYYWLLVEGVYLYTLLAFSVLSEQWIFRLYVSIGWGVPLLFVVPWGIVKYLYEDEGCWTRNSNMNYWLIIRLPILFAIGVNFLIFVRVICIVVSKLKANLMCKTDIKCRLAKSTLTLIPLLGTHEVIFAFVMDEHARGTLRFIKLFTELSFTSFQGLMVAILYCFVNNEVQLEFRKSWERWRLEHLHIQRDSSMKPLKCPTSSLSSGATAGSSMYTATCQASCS

CC[C@H](C)[C@H](NC(=O)[C@H](Cc1ccccc1)NC(=O)[C@H](C)NC(=O)C(C)(C)NC(=O)[C@H](CCC(N)=O)NC(=O)[C@H](C)NC(=O)[C@H](CCCCNC(=O)COCCOCCNC(=O)CC[C@H](NC(=O)CCCCCCCCCCCCCCCCCCC(=O)O)C(=O)O)NC(=O)[C@H](CCCCN)NC(=O)[C@H](CC(=O)O)NC(=O)[C@H](CC(C)C)NC(=O)[C@](C)(CC(C)C)NC(=O)[C@@H](NC(=O)[C@H](CO)NC(=O)[C@H](Cc1ccc(O)cc1)NC(=O)[C@H](CC(=O)O)NC(=O)[C@H](CO)NC(=O)[C@@H](NC(=O)[C@H](Cc1ccccc1)NC(=O)[C@@H](NC(=O)CNC(=O)[C@H](CCC(N)=O)NC(=O)C(C)(C)NC(=O)[C@@H](N)Cc1ccc(O)cc1)[C@@H](C)O)[C@@H](C)O)[C@@H](C)CC)C(=O)N[C@@H](CCC(=O)O)C(=O)N[C@@H](Cc1ccc(O)cc1)C(=O)N[C@@H](CC(C)C)C(=O)N[C@@H](CC(C)C)C(=O)N[C@@H](CCC(=O)O)C(=O)NCC(=O)NCC(=O)N1CCC[C@H]1C(=O)N[C@@H](CO)C(=O)N[C@@H](CO)C(=O)NCC(=O)N[C@@H](C)C(=O)N1CCC[C@H]1C(=O)N1CCC[C@H]1C(=O)N1CCC[C@H]1C(=O)N[C@@H](CO)C(N)=O [retatrutide]
Emax ± S.E.M. (% WT) ([1]; 40 min, n at least 3): 100.00 ± 2.75 % WT
EC50 ([1]; 40 min stimulation, at least 3 independent experiments in quadruplicate): 0.00891 nM
Emax ± S.E.M. (% WT) [2]: 100.47 ± 2.15 % WT
EC50 ([2]; ****P < 0.0001): 0.123 nM
Emax ± S.E.M. (% WT) [3]: 101.34 ± 2.03 % WT
EC50 ([3]; ****P < 0.0001): 0.0661 nM
EC50 [4]: 0.00676 nM
Emax ± S.E.M. (% WT) [4]: 100.15 ± 1.51 % WT
EC50 [5]: 0.0049 nM
Emax ± S.E.M. (% WT) [5]: 100.48 ± 1.34 % WT
Emax ± S.E.M. (% WT) [6]: 100.58 ± 1.33 % WT
EC50 ([6]; ****P < 0.0001): 0.0479 nM
change of retatrutide potency by mutation ([7]; GCGR S297(ECL2)A): slightly increased
decrease of cAMP signaling potency by mutation ([7]; GCGR Y138(1.36b)A): 26.9 fold
change of cAMP signaling potency by mutation ([7]; GCGR Y138(1.36b)L): moderately increased
Emax ± S.E.M. (% WT) [8]: 100.39 ± 2.54 % WT
EC50 ([8]; ****P < 0.0001): 0.0661 nM
Emax ± S.E.M. (% WT) [9]: 100.64 ± 1.39 % WT
EC50 ([9]; *P < 0.05): 0.00398 nM
Emax ± S.E.M. (% WT) [10]: 101.28 ± 2.08 % WT
EC50 ([10]; ****P < 0.0001): 0.195 nM
Emax ± S.E.M. (% WT) [11]: 101.97 ± 3.51 % WT
EC50 ([11]; ****P < 0.0001): 0.631 nM
Emax ± S.E.M. (% WT) [12]: 101.55 ± 2.54 % WT
EC50 ([12]; ****P < 0.0001): 0.263 nM
EC50 [13]: 0.00933 nM
Emax ± S.E.M. (% WT) [13]: 100.00 ± 2.06 % WT
Emax ± S.E.M. (% WT) [14]: 99.73 ± 0.94 % WT
EC50 ([14]; **P < 0.01): 0.00324 nM

Reference: publication PMC11255275, “Structural insights into the triple agonism at GLP-1R, GIPR and GCGR manifested by retatrutide” (Cell Discovery, 2024)
